Laboratory results as given in patent US20230085307A1, “PYRIDAZINONE COMPOUND AND HERBICIDE” (NISSAN CHEMICAL CORPORATION, priority 2019, published 2023).

Key:
chickweed = test: Test Example 5: herbicidal effect by foliage application, plastic box (Table 20, symbol P); format: in vivo, common chickweed (Stellaria media); conditions: foliage application
Summary of the method: (§1)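 Plants sown in sterilized diluvial soil and grown 14 days in a greenhouse at 25° C to 30° C, then sprayed on the foliage with the compound's emulsion diluted in water to a predetermined herbicide amount. Injury to weeds and crops scored three weeks after application on a visual rating scale.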

wild oat = test: Test Example 5: herbicidal effect by foliage application, plastic box (Table 20, symbol I); format: in vivo, wild oat (Avena fatua); conditions: foliage application
Summary of the method: as §1

barnyard grass [1] = test: Test Example 5: herbicidal effect by foliage application, plastic box (Table 20, symbol H); format: in vivo, barnyard grass (Echinochloa crus-galli); conditions: foliage application
Summary of the method: as §1

false cleavers = test: Test Example 5: herbicidal effect by foliage application, plastic box (Table 20, symbol Q); format: in vivo, false cleavers (Galium spurium); conditions: foliage application
Excerpt: [Test Example 5] Herbicidal Effect Test by Foliage Application
Sterilized diluvial soil was placed in a plastic box having a length of 21 cm, a width of 13 cm, and a depth of 7 cm. The seeds of each of southern crabgrass, green foxtail, barnyard grass, wild oat, blackgrass, Italian ryegrass, windgrass, velvetleaf, redroot pigweed, lambsquarters, chickweed, false cleavers, persian speedwell, corn, soybean, rice, wheat, beet, and rapeseed were sowed in a spot-like manner and covered with the soil having a thickness of about 1.5 cm. Thereafter, the plants were grown in a greenhouse at 25° C. to 30° C. After 14-day growth of the plants, the emulsion agent of the compound of the present invention prepared according to Formulation Example 2 was diluted with water so as to achieve a predetermined herbicide amount, and the diluted emulsion agent was uniformly applied to a foliage part with a small-sized spray. Three weeks after the herbicide application, the effect of the herbicide on each plant was evaluated according to the criteria of Test Example 1.

Italian ryegrass = test: Test Example 5: herbicidal effect by foliage application, plastic box (Table 20, symbol K); format: in vivo, Italian ryegrass (Lolium multiflorum); conditions: foliage application
Summary of the method: as §1

blackgrass = test: Test Example 5: herbicidal effect by foliage application, plastic box (Table 20, symbol J); format: in vivo, blackgrass (Alopecurus myosuroides); conditions: foliage application
Summary of the method: as §1

southern crabgrass = test: Test Example 5: herbicidal effect by foliage application, plastic box (Table 20, symbol F); format: in vivo, southern crabgrass (Digitaria ciliaris); conditions: foliage application
Summary of the method: as §1

persian speedwell = test: Test Example 5: herbicidal effect by foliage application, plastic box (Table 20, symbol R); format: in vivo, Persian speedwell (Veronica persica); conditions: foliage application
Summary of the method: as §1

redroot pigweed = test: Test Example 5: herbicidal effect by foliage application, plastic box (Table 20, symbol N); format: in vivo, redroot pigweed (Amaranthus retroflexus); conditions: foliage application
Summary of the method: as §1

Chinese sprangletop = test: Test Example 3: herbicidal effect by foliage application, Wagner pot (Table 18, symbol D); format: in vivo, chinese sprangletop (Leptochloa chinensis); conditions: 320 g/ha
Summary of the method: (§2)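 Plants were sown in alluvial soil held under 0.1–0.5 cm standing water and grown 14 days in a greenhouse at 25–30 °C. An emulsifiable formulation, water-diluted to the set dose, was then sprayed onto the foliage, and effects were scored three weeks later using previously defined criteria.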

green foxtail = test: Test Example 5: herbicidal effect by foliage application, plastic box (Table 20, symbol G); format: in vivo, green foxtail (Setaria viridis); conditions: foliage application
Summary of the method: as §1

lambsquarters = test: Test Example 5: herbicidal effect by foliage application, plastic box (Table 20, symbol O); format: in vivo, lambsquarters (Chenopodium album); conditions: foliage application
Summary of the method: as §1

velvetleaf = test: Test Example 5: herbicidal effect by foliage application, plastic box (Table 20, symbol M); format: in vivo, velvetleaf (Abutilon theophrasti); conditions: foliage application
Summary of the method: as §1

rice flat sedge = test: Test Example 3: herbicidal effect by foliage application, Wagner pot (Table 18, symbol E); format: in vivo, rice flat sedge (Cyperus iria); conditions: 320 g/ha
Summary of the method: as §2

barnyard grass [2] = test: Test Example 3: herbicidal effect by foliage application, Wagner pot (Table 18, symbol H); format: in vivo, barnyard grass (Echinochloa crus-galli); conditions: 320 g/ha
Summary of the method: as §2

windgrass = test: Test Example 5: herbicidal effect by foliage application, plastic box (Table 20, symbol L); format: in vivo, windgrass (Apera spica-venti); conditions: foliage application
Summary of the method: as §1

[3] = 320 g/ha, three weeks after application
[4] = AAH 80 g/ha, three weeks after application
[5] = 270 g/ha, 3 weeks after application
[6] = 320 g/ha, evaluated three weeks after application

## CSc1cc(F)ccc1-c1sc2ccccc2c1-c1c(O)c(C)nn(C)c1=O [1-063]
chickweed; [3]
  herbicidal effect grade, P: chickweed: 5 (Herbicidal rate of 90% or more (almost completely withered))
Wild oat; [3]
  herbicidal effect grade, I: wild oat: 2 (Herbicidal rate of 20% or more and less than 40%)
Barnyard grass [1]; [3]
  herbicidal effect grade, H: barnyard grass: 0 (Herbicidal rate of 5% or less (almost no effect))
False cleavers; [3]
  herbicidal effect grade, Q: false cleavers: 2 (Herbicidal rate of 20% or more and less than 40%)
Italian ryegrass; [3]
  herbicidal effect grade, K: Italian ryegrass: 1 (Herbicidal rate of 5% or more and less than 20%)
blackgrass; [3]
  herbicidal effect grade, J: blackgrass: 3 (Herbicidal rate of 40% or more and less than 70%)
Southern crabgrass; [3]
  herbicidal effect grade, F: southern crabgrass: 0 (Herbicidal rate of 5% or less (almost no effect))
Persian speedwell; [3]
  herbicidal effect grade, R: persian speedwell: 4 (Herbicidal rate of 70% or more and less than 90%)
Redroot pigweed; [3]
  herbicidal effect grade, N: redroot pigweed: 0 (Herbicidal rate of 5% or less (almost no effect))
Chinese sprangletop
  herbicidal effect on D (Chinese sprangletop), rating 0-5: 0 (Herbicidal rate of 5% or less (almost no effect))
Green foxtail; [3]
  herbicidal effect grade, G: green foxtail: 0 (Herbicidal rate of 5% or less (almost no effect))
lambsquarters; [3]
  herbicidal effect grade, O: lambsquarters: 3 (Herbicidal rate of 40% or more and less than 70%)
velvetleaf; [3]
  herbicidal effect grade, M: velvetleaf: 0 (Herbicidal rate of 5% or less (almost no effect))
Rice flat sedge
  herbicidal effect on E (rice flat sedge), rating 0-5: 3 (Herbicidal rate of 40% or more and less than 70%)
Barnyard grass [2]
  herbicidal effect on H (barnyard grass), rating 0-5: 2 (Herbicidal rate of 20% or more and less than 40%)

## CCCC(=O)Oc1c(OC)nn(C)c(=O)c1-c1c(-c2ccc(-c3ccccc3)cc2)sc2ccccc12 [1-167]
chickweed; [4]
  P: chickweed, herbicidal effect: 1 (Herbicidal rate of 5% or more and less than 20%)
Wild oat; [4]
  I: wild oat, herbicidal effect: 0 (Herbicidal rate of 5% or less (almost no effect))
Barnyard grass [1]; [4]
  H: barnyard grass, herbicidal effect: 0 (Herbicidal rate of 5% or less (almost no effect))
False cleavers; [4]
  Q: false cleavers, herbicidal effect: 3 (Herbicidal rate of 40% or more and less than 70%)
Italian ryegrass; [4]
  K: Italian ryegrass, herbicidal effect: 0 (Herbicidal rate of 5% or less (almost no effect))
blackgrass; [4]
  J: blackgrass, herbicidal effect: 0 (Herbicidal rate of 5% or less (almost no effect))
Southern crabgrass; [4]
  F: southern crabgrass, herbicidal effect: 0 (Herbicidal rate of 5% or less (almost no effect))
Persian speedwell; [4]
  R: persian speedwell, herbicidal effect: 3 (Herbicidal rate of 40% or more and less than 70%)
Redroot pigweed; [4]
  N: redroot pigweed, herbicidal effect: 3 (Herbicidal rate of 40% or more and less than 70%)
Green foxtail; [4]
  G: green foxtail, herbicidal effect: 0 (Herbicidal rate of 5% or less (almost no effect))
lambsquarters; [4]
  O: lambsquarters, herbicidal effect: 2 (Herbicidal rate of 20% or more and less than 40%)
velvetleaf; [4]
  M: velvetleaf, herbicidal effect: 0 (Herbicidal rate of 5% or less (almost no effect))
windgrass; [4]
  L: windgrass, herbicidal effect: 0 (Herbicidal rate of 5% or less (almost no effect))

## COCCOCOc1c(C)nn(C)c(=O)c1-c1c(-c2ccc(OCC(=O)OC)cc2)sc2ccccc12 [1-233]
Wild oat; [5]
  effect on wild oat (I): 0 (Herbicidal rate of 5% or less (almost no effect))
Barnyard grass [1]; [5]
  effect on barnyard grass (H): 0 (Herbicidal rate of 5% or less (almost no effect))
False cleavers; [5]
  effect on false cleavers (Q): 0 (Herbicidal rate of 5% or less (almost no effect))
Italian ryegrass; [5]
  effect on Italian ryegrass (K): 0 (Herbicidal rate of 5% or less (almost no effect))
blackgrass; [5]
  effect on blackgrass (J): 0 (Herbicidal rate of 5% or less (almost no effect))
Southern crabgrass; [5]
  effect on southern crabgrass (F): 0 (Herbicidal rate of 5% or less (almost no effect))
Persian speedwell; [5]
  effect on persian speedwell (R): 0 (Herbicidal rate of 5% or less (almost no effect))
Green foxtail; [5]
  effect on green foxtail (G): 0 (Herbicidal rate of 5% or less (almost no effect))
lambsquarters; [5]
  effect on lambsquarters (O): 2 (Herbicidal rate of 20% or more and less than 40%)
velvetleaf; [5]
  effect on velvetleaf (M): 0 (Herbicidal rate of 5% or less (almost no effect))
windgrass; [5]
  effect on windgrass (L): 0 (Herbicidal rate of 5% or less (almost no effect))

## CCCC(=O)Oc1c(C)nn(C)c(=O)c1-c1c(-c2ccc(OC)c(C)c2)sc2ccc(Cl)cc12 [2-120]
chickweed; [6]
  herbicidal effect on P: chickweed: 5 (Herbicidal rate of 90% or more (almost completely withered))
Wild oat; [6]
  herbicidal effect on I: wild oat: 0 (Herbicidal rate of 5% or less (almost no effect))
Barnyard grass [1]; [6]
  herbicidal effect on H: barnyard grass: 0 (Herbicidal rate of 5% or less (almost no effect))
False cleavers; [6]
  herbicidal effect on Q: false cleavers: 4 (Herbicidal rate of 70% or more and less than 90%)
Italian ryegrass; [6]
  herbicidal effect on K: Italian ryegrass: 0 (Herbicidal rate of 5% or less (almost no effect))
blackgrass; [6]
  herbicidal effect on J: blackgrass: 0 (Herbicidal rate of 5% or less (almost no effect))
Southern crabgrass; [6]
  herbicidal effect on F: southern crabgrass: 0 (Herbicidal rate of 5% or less (almost no effect))
Persian speedwell; [6]
  herbicidal effect on R: persian speedwell: 5 (Herbicidal rate of 90% or more (almost completely withered))
Redroot pigweed; [6]
  herbicidal effect on N: redroot pigweed: 0 (Herbicidal rate of 5% or less (almost no effect))
Green foxtail; [6]
  herbicidal effect on G: green foxtail: 0 (Herbicidal rate of 5% or less (almost no effect))
lambsquarters; [6]
  herbicidal effect on O: lambsquarters: 0 (Herbicidal rate of 5% or less (almost no effect))
velvetleaf; [6]
  herbicidal effect on M: velvetleaf: 0 (Herbicidal rate of 5% or less (almost no effect))
windgrass; [6]
  herbicidal effect on L: windgrass: 0 (Herbicidal rate of 5% or less (almost no effect))

## COc1cc2sc(-c3ccc(F)cc3)c(-c3c(O)c(C)nn(C)c3=O)c2cc1OC [5-057]
Wild oat; [3]
  herbicidal effect on wild oat (I): 0 (Herbicidal rate of 5% or less (almost no effect))
Barnyard grass [1]; [3]
  herbicidal effect on barnyard grass (H): 0 (Herbicidal rate of 5% or less (almost no effect))
False cleavers; [3]
  herbicidal effect on false cleavers (Q): 0 (Herbicidal rate of 5% or less (almost no effect))
Italian ryegrass; [3]
  herbicidal effect on Italian ryegrass (K): 0 (Herbicidal rate of 5% or less (almost no effect))
blackgrass; [3]
  herbicidal effect on blackgrass (J): 0 (Herbicidal rate of 5% or less (almost no effect))
Southern crabgrass; [3]
  herbicidal effect on southern crabgrass (F): 0 (Herbicidal rate of 5% or less (almost no effect))
Persian speedwell; [3]
  herbicidal effect on persian speedwell (R): 4 (Herbicidal rate of 70% or more and less than 90%)
Green foxtail; [3]
  herbicidal effect on green foxtail (G): 0 (Herbicidal rate of 5% or less (almost no effect))
lambsquarters; [3]
  herbicidal effect on lambsquarters (O): 0 (Herbicidal rate of 5% or less (almost no effect))
velvetleaf; [3]
  herbicidal effect on velvetleaf (M): 0 (Herbicidal rate of 5% or less (almost no effect))
windgrass; [3]
  herbicidal effect on windgrass (L): 0 (Herbicidal rate of 5% or less (almost no effect))

## CCOc1ccccc1-c1cc2c(-c3c(O)c(C)nn(C)c3=O)c(-c3ccccc3OCC)sc2cc1OC [5-079]
Wild oat; [3]
  herbicidal effect on wild oat (I): 0 (Herbicidal rate of 5% or less (almost no effect))
Barnyard grass [1]; [3]
  herbicidal effect on barnyard grass (H): 0 (Herbicidal rate of 5% or less (almost no effect))
False cleavers; [3]
  herbicidal effect on false cleavers (Q): 5 (Herbicidal rate of 90% or more (almost completely withered))
Italian ryegrass; [3]
  herbicidal effect on Italian ryegrass (K): 0 (Herbicidal rate of 5% or less (almost no effect))
blackgrass; [3]
  herbicidal effect on blackgrass (J): 0 (Herbicidal rate of 5% or less (almost no effect))
Southern crabgrass; [3]
  herbicidal effect on southern crabgrass (F): 0 (Herbicidal rate of 5% or less (almost no effect))
Persian speedwell; [3]
  herbicidal effect on persian speedwell (R): 0 (Herbicidal rate of 5% or less (almost no effect))
Chinese sprangletop
  herbicidal effect on Chinese sprangletop (D): 0 (Herbicidal rate of 5% or less (almost no effect))
Green foxtail; [3]
  herbicidal effect on green foxtail (G): 0 (Herbicidal rate of 5% or less (almost no effect))
lambsquarters; [3]
  herbicidal effect on lambsquarters (O): 0 (Herbicidal rate of 5% or less (almost no effect))
velvetleaf; [3]
  herbicidal effect on velvetleaf (M): 0 (Herbicidal rate of 5% or less (almost no effect))
windgrass; [3]
  herbicidal effect on windgrass (L): 0 (Herbicidal rate of 5% or less (almost no effect))
Rice flat sedge
  herbicidal effect on rice flat sedge (E): 0 (Herbicidal rate of 5% or less (almost no effect))
Barnyard grass [2]
  herbicidal effect on barnyard grass (H): 3 (Herbicidal rate of 40% or more and less than 70%)
